Publication PMC11363900, “A single-pass type I membrane protein, mannose-specific L-type lectin, potentially involved in the adhesion and invasion of Cryptosporidium parvum” (Parasite, 2024)

Target: T1, CpLTL (GST-CpLTL) (Cryptosporidium parvum, UniProt Q5CWG8)
T1 construct: gene cgd6_5140; lectin-leg-like domain (nucleotides 130-852 of the ORF; domain 44-284 aa of 469), without signal peptide and TM, GST fusion kept (pGEX-4T-1), E. coli Rosetta (DE3), about 48 kDa
Test: competition ELISA, immobilised GST-CpLTL, binding of horseradish peroxidase (mannose-rich glycoprotein), OD405
Details: 100 mM mannose, 50 μg/mL HRP, PBS, 4 °C overnight; competitive with HRP glycan

T1 sequence (Q5CWG8 entry or part of it): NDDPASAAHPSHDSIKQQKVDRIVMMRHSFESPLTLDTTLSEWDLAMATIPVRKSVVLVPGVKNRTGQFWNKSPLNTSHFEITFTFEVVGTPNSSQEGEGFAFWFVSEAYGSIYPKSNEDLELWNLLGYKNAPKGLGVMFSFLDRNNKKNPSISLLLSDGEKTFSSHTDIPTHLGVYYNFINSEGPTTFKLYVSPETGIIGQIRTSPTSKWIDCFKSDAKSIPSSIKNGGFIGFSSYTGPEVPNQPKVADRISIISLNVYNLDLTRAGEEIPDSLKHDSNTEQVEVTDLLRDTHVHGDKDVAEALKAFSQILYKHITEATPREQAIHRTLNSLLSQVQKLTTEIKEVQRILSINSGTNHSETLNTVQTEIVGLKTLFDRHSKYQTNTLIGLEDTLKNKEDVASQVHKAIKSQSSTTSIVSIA

How did the “competition ELISA, immobilised GST-CpLTL, binding of horseradish peroxidase (man)” value turn out when `OC[C@H]1OC(O)[C@@H](O)[C@@H](O)[C@@H]1O` (stereo partly shown) [mannose] was run?
Its value is “Mannose showed competitive inhibition on the binding of HRP to GST-CpLTL protein”.
